Reference: US9463198B2, “Compositions and methods for reducing or preventing metastasis” (Infectious Disease Research Institute, priority 2013, dated 2016)

Columns and labels:
[1] = system: MADB 106 tumor cells; test: MADB 106 lung tumor retention (LTR) in F344 rats; assay type: in vivo, F344 rat; conditions: for MADB 106 LTR, GLA vs PBS (time course): with epinephrine
Protocol: GLA (IDRI, Seattle, Wash.), dissolved in stable emulsion (SE) (2000 μg/ml) was diluted in PBS for a final concentration of 3 μg/ml-200 μg/ml (depending on the relevant experiment). One-hundred μl from the chosen concentration were injected subcutaneously (s.c.) to each animal (0.3 μg-20 μg/animal), immediately, 4 h, 12 h, 24 h, 48 h, or 96 h prior to MADB106 tumor cell inoculation (depending on the relevant experiment).
MADB 106 tumor cells metastasize only to the lungs, and lung tumor retention (LTR), which is highly indicative of the number of metastases that would have developed weeks later, is dependent upon NK cells in this model. Additionally, because the metastatic process of MADB106 is sensitive to NK activity predominantly during the first 24 h following inoculation, LTR is more reflective of in vivo NK activity levels than the number of actual metastases. The MADB 106 cell line was maintained in monolayer cultures in complete media (RPMI-1640 media supplemented with 10% heat-inactivated fetal calf serum (FCS), 50 μg/mL of gentamicin, 2 mM of 1-glutamine, 0.1 mM of non-essential amino-acids, and 1 mM of sodium pyruvate, (Biological Industries, Kibbutz Biet Haemek, Israel) in 100% humidity, 5% CO2 at 37° C. Cells were removed from the culture flask with trypsin solution (0.25% in PBS), and were washed with complete media. This cell line was used for both in vivo assessment of lung tumor retention and in vitro examination of NK cytotoxicity.
Tumor cell DNA radiolabeling for assessment of LTR was accomplished by adding 0.5 μCi/ml of ^125Iododeoxyuridine (^125IDUR, Danyel Biotech, Rehovot, Israel) to the cell culture for 24 h. For tumor cell injection, rats were lightly anesthetized with isoflurane, and 4×10^5/kg MADB106 tumor cells in 2 ml/kg PBS containing 0.1% bovine serum albumin (BSA) were injected into their tail vein. Some of the experiments also employed an additional 0.5 ml s.c. injection of epinephrine (1.8 mg/kg in females and 0.6 mg/kg in males) dissolved in a slow-release emulsion (4 parts PBS, 3 parts mineral oil (Sigma, Rehovot, Israel), and 1 part mannide-monooleate (a non-specific surface active emulsifier, Sigma, Rehovot, Israel)), for the amplification of MADB 106 retention in the lungs, allowing better group distinction. For assessment of LTR, animals were sacrificed with CO2, their lungs were removed 24 h after inoculation with ^125IDUR-labeled tumor cells, and placed in a γ-counter to assess percent radioactivity retained in this organ. LTR was calculated using the following formula: (radioactivity count of lung−background radioactivity)×100/(radioactivity count of the total injected cell suspension−background radioactivity).
Seventy-five three months old F344 male rats were randomly divided into one of 7 experimental groups administered with PBS, SE, or GLA in a dose/animal of 0.3 μg, 0.7 μg, 2.5 μg, 10 μg, and 20 μg. Each animal was injected s.c. with 100 μl of drug according to its group assignment, and, 24 h later, MADB 106 cells were inoculated (as detailed in section 4 above). Each of these 7 groups was further sub-divided into two separate groups—one that was injected with epinephrine during tumor inoculation, and the second that was injected with vehicle. Twenty-four hours later, animals were sacrificed and lungs were extracted for LTR assessment (as detailed in section 4).
In the first experiment, 75 six-month old F344 male rats were randomly divided into one of 5 injection time points preceding tumor inoculation—0 h, 4 h, 12 h, 24 h, and 48 h. Each group was further sub-divided into one of three experimental drug groups—PBS, SE, and 2 μg GLA. Each animal was injected s.c. with 100 μl according to its relevant drug group, in its designated time point. At time 0 h, MADB106 cells were injected (as detailed in section 4), along with epinephrine. […]

[2] = system: MADB 106 tumor cells; test: Three week study of MADB106 metastases development in the lungs; assay type: in vivo, F344 rat; conditions: male and female rats, 2 μg GLA s.c. 24 h before inoculation, counted three weeks later, GLA reducing the number
Protocol: Eighty-six six-month old F344 rats (44 females) were divided into three experimental groups (2 μg GLA, SE, and PBS). Each animal was injected s.c. with 100 μl according to its group assignment. Twenty-four hrs later, animals were lightly anesthetized with isoflurane and 10^5 MADB 106 tumor cells (approximately 4×10^5/kg) were injected into their tail vein in 0.5 ml of PBS (supplemented with 0.1% BSA). Three weeks later, rats were killed, and their lungs removed and placed for 24 h in Bouin's solution (72% saturated picric acid solution, 23% formaldehyde (37% solution) and 5% glacial acetic acid). After being washed in ethanol, visible surface metastases were counted by a researcher uninformed of the origin of each lung.

CNC[C@H](O)c1ccc(O)c(O)c1 [epinephrine, reference compound]
effect of epinephrine on LTR ([1]; s.c. slow-release emulsion given along with MADB 106 cell inoculation): increasing LTR levels

glucopyranosyl lipid adjuvant [GLA]
MADB 106 LTR, GLA vs PBS (time course) ([1]; female rats, 2 μg GLA s.c. 24 h before inoculation, p<0.05): significant difference | MADB 106 LTR, GLA vs PBS (time course) ([1]; female rats, 2 μg GLA s.c. 48 h before inoculation, p<0.05): significant difference | MADB 106 LTR, GLA vs PBS (time course) ([1]; male rats, 2 μg GLA s.c. 4 h before inoculation, p<0.05): significant difference | MADB 106 LTR, GLA vs PBS (time course) ([1]; male rats, 2 μg GLA s.c. 12 h before inoculation, p<0.0001): significant difference | MADB 106 LTR, GLA vs PBS (time course) ([1]; male rats, 2 μg GLA s.c. 24 h before inoculation, p<0.0001): significant difference | MADB 106 LTR, GLA vs PBS (time course) ([1]; male rats, 2 μg GLA s.c. 48 h before inoculation, p<0.0001): significant difference | MADB 106 LTR in NK-depleted animals ([1]; male rats, NK depletion by anti-NKR-P1 mAb, 2 μg GLA or SE s.c. 24 h before inoculation): no effect | MADB 106 LTR, additive effect of GLA over SE ([1]; male rats, epinephrine groups, 0.7 μg/animal s.c. 24 h before inoculation, p<0.05): significant improvements | MADB 106 LTR, additive effect of GLA over SE ([1]; male rats, epinephrine groups, 2.5 μg/animal s.c. 24 h before inoculation, p<0.01): significant improvements | MADB 106 LTR, additive effect of GLA over SE ([1]; male rats, epinephrine groups, 10 μg/animal s.c. 24 h before inoculation, p<0.01): significant improvements | MADB 106 LTR, additive effect of GLA over SE ([1]; male rats, epinephrine groups, 20 μg/animal s.c. 24 h before inoculation, p<0.001): significant improvements | reduction of the epinephrine effect on LTR, relation to dosage ([1]; male rats, epinephrine groups, 0.3-20 μg/animal): positively correlated with its dosage | MADB 106 LTR, GLA over PBS ([1]; male rats, epinephrine groups, all GLA doses (0.3-20 μg/animal) s.c. 24 h before tumor inoculation, p<0.0001): significant improvement | MADB 106 LTR, GLA vs PBS, no-depletion condition ([1]; male rats, no NK depletion, 2 μg GLA s.c. 24 h before inoculation, p<0.01): significant difference | dosage giving an additive effect for GLA over SE effects on LTR ([1]; male rats, s.c. 24 h before inoculation): ≥ 0.7 μg per animal | MADB 106 LTR, GLA over PBS ([1]; male rats, vehicle (no epinephrine) groups, 0.7 μg/animal s.c. 24 h before inoculation, p<0.05): significant improvement | MADB 106 LTR, GLA over PBS ([1]; male rats, vehicle (no epinephrine) groups, 2.5 μg/animal s.c. 24 h before inoculation, p<0.01): significant improvement | MADB 106 LTR, GLA over PBS ([1]; male rats, vehicle (no epinephrine) groups, 10 μg/animal s.c. 24 h before inoculation, p<0.05): significant improvement | MADB 106 LTR, GLA over PBS ([1]; male rats, vehicle (no epinephrine) groups, 20 μg/animal s.c. 24 h before inoculation, p<0.01): significant improvement | number of lung surface metastases, GLA vs SE ([2]; p<0.01): significant difference | number of lung surface metastases, GLA vs PBS ([2]; p<0.05): significant difference
